Experimental data taken from ChEMBL document CHEMBL1150406, “Novel triterpenoid from Citrus aurantium L. possesses chemopreventive properties against human colon cancer cells” (Bioorg Med Chem, 2008).
The source made the active and inactive calls. No cut-off for these calls is given here.

Experiments:
HT-29 [1] = assay: Cytotoxicity against human HT29 cells at 5 uM after 72 hrs by MTT assay; assay type: functional
[2] = Growth inhibition of monkey COS1 cells by flow cytometry; assay type: cell-based; details: cos-1
HT-29 [3] = assay: Cell cycle arrest in human HT29 cells by accumulation at S phase at 5 uM after 48 hrs by flow cytometry; assay type: functional
HT-29 [4] = assay: Cytotoxicity against human HT29 cells at 2.5 uM after 48 hrs by MTT assay; assay type: functional, cell-based
HT-29 [5] = assay: Cell cycle arrest in human HT29 cells by accumulation at G0/G1 phase at 5 uM after 48 hrs by flow cytometry; assay type: functional
HT-29 [6] = assay: Induction of apoptosis in human HT29 cells at 10 uM by nuclear staining method; assay type: functional, cell-based
HT-29 [7] = assay: Cell cycle arrest in human HT29 cells assessed as background aggregates and debris at 10 uM after 48 hrs by flow cytometry; assay type: functional
HT-29 [8] = assay: Cell cycle arrest in human HT29 cells by accumulation at S phase at 10 uM after 48 hrs by flow cytometry; assay type: functional
HT-29 [9] = assay: Cell cycle arrest in human HT29 cells by accumulation at G0/G1 phase at 10 uM after 48 hrs by flow cytometry; assay type: functional
HT-29 [10] = assay: Cytotoxicity against human HT29 cells after 48 hrs by MTT assay; assay type: functional, cell-based
HT-29 [11] = assay: Cell cycle arrest in human HT29 cells by accumulation at G2/M phase at 5 uM after 48 hrs by flow cytometry; assay type: functional
HT-29 [12] = assay: Cell cycle arrest in human HT29 cells assessed as background aggregates and debris at 5 uM after 48 hrs by flow cytometry; assay type: functional
HT-29 [13] = assay: Cytotoxicity against human HT29 cells at 10 uM after 24 hrs by MTT assay; assay type: functional, cell-based
HT-29 [14] = assay: Cell cycle arrest in human HT29 cells by accumulation at G2/M phase at 10 uM after 48 hrs by flow cytometry; assay type: functional

Row | SMILES | Activity (HT-29 [1]) [%] | Activity [2] | Activity (HT-29 [3]) [%] | Activity (HT-29 [4]) | Activity (HT-29 [5]) [%] | Activity (HT-29 [6]) | Activity (HT-29 [7]) [%] | Activity (HT-29 [8]) [%] | Activity (HT-29 [9]) [%] | Activity (HT-29 [10]) | Activity (HT-29 [11]) [%] | Activity (HT-29 [12]) [%] | Activity (HT-29 [13]) | Activity (HT-29 [14]) [%]
1 | CC(C)(O)[C@@H]1CC(=O)[C@]2(C)[C@H](CC[C@@]3(C)[C@H](C4=CC(O)OC4=O)OC(=O)[C@H]4O[C@]432)[C@]12COC(=O)C[C@@H]2O (stereo partly specified) [ICHANEXIC ACID] | 20 | Not Active | 4.1 | Active | 91.3 | Active | 75.1 | 6 | 70.2 | Active | 8.7 | 42.9 | Active | 23.8
2 | CC1(C)OC[C@@]2([C@@H](O)CC(=O)O)[C@H]3CC[C@@]4(C)[C@H](c5ccoc5)OC(=O)[C@H]5O[C@]54[C@]3(C)C(=O)C[C@@H]12 [ISOLIMONOIC ACID] | 20 | Not Active | 4 | Active | 91 | Active | 75.5 | 12.7 | 69.9 |  | 6.1 | 34.8 |  | 17.4
